Source: US7304052B2, “Substituted homopiperidinyl benzimidazole analogues as fundic relaxants” (Janssen Pharmaceuitca N.V., priority 1999, dated 2007)

Test system: gastric tone (fundus of the stomach)
Assay: Gastric tone measured by an electronic barostat in conscious dogs
Assay type: in vivo, dog
Conditions: mean maximal change in intragastric volume on relaxation of the fundus, 1 hour after S.C. administration, 0.63 mg/kg, conscious female beagle dogs, barostat at 2 mmHg
Experimental: Gastric tone cannot be measured by manometric methods. Therefore an electronic barostat was used. This allows the study of the physiological pattern and regulation of gastric tone in conscious dogs and the influence of test-compounds on this tone.
The barostat consists of an air injection system which is connected by a double-lumen 14-French polyvinyl tube to an ultrathin flaccid polyethylene bag (maximal volume: ±700 ml). Variations in gastric tone were measured by recording changes in the volume of air within an intragastric bag, maintained at a constant pressure. The barostat maintains a constant pressure (preselected) within a flaccid air-filled bag introduced into the stomach, changing the volume of air within the bag by an electronic feedback system.
Thus, the barostat measures gastric motor activity (contraction or relaxation) as changes in intragastric volume (decrease or increase resp.) at a constant intragastric pressure. The barostat consists of a strain gauge linked by an electronic relay to an air injection-aspiration system Both the strain gauge and the injection system are connected by means of double-lumen polyvinyl tube to an ultrathin polyethylene bag. A dial in the barostat allows selection of the pressure level to be maintained within the intragastric bag.
Female beagle dogs, weighing 7-17 kg, were trained to stand quietly in Pavlov frames. They were implanted with a gastric cannula under general anaesthesia and aseptic precautions. After a median laparotomy, an incision was made through the gastric wall in longitudinal direction between the greater and the lesser curve, 2 cm above the nerves of Latarjet. The cannula was secured to the gastric wall by means of a double purse string suture and brought out via a stub wound at the left quadrant of the hypochondrium Dogs were allowed a recovery period of two weeks.
At the beginning of the experiment, the cannula was opened in order to remove any gastric juice or food remnants. If necessary, the stomach was cleansed with 40 to 50 ml lukewarm water. […]

SMILES	Maximum change in volume (mean) [mL]
c1ccc(CN2CCCC(c3nc4ncccc4[nH]3)CC2)cc1 (single isomer, unassigned; (+)) [Compound 81, (+)-2-[hexahydro-1-(phenylmethyl)-1H-azepin-4-yl]-1H-imidazo[4,5-b]pyridine]	183
c1ccc(CN2CCCC(c3nc4ncccc4[nH]3)CC2)cc1 (racemic) [Compound 69, (±)-2-[hexahydro-1-(phenylmethyl)-1H-azepin-4-yl]-1H-imidazo[4,5-b]pyridine]	87
c1ccc(CN2CCCC(c3nc4ncccc4[nH]3)CC2)cc1 (single isomer, unassigned; (-)) [Compound 80, (−)-2-[hexahydro-1-(phenylmethyl)-1H-azepin-4-yl]-1H-imidazo[4,5-b]pyridine]	55
